Test results reported in publication PMC10648204, “Discovery of Novel Biphenyl Carboxylic Acid Derivatives as Potent URAT1 Inhibitors” (Molecules, 2023).

Experiments:
[1] = target: T1, human URAT1 (Homo sapiens, UniProt Q96S37); assay: In vitro URAT1 inhibitory assay (14C-uric acid uptake in HEK293T cells expressing human URAT1); assay type: cell-based; settings: HEK293-URAT1 cells, 14C-labeled uric acid substrate; for inhibition at 10 µM: HEK-293T, 10 μM compound, mean of three measurements
T1 construct: expressed in transfected cells; host or cells: HEK293T cells (ATCC CRL-11268)
T1 sequence (Q96S37 1-553): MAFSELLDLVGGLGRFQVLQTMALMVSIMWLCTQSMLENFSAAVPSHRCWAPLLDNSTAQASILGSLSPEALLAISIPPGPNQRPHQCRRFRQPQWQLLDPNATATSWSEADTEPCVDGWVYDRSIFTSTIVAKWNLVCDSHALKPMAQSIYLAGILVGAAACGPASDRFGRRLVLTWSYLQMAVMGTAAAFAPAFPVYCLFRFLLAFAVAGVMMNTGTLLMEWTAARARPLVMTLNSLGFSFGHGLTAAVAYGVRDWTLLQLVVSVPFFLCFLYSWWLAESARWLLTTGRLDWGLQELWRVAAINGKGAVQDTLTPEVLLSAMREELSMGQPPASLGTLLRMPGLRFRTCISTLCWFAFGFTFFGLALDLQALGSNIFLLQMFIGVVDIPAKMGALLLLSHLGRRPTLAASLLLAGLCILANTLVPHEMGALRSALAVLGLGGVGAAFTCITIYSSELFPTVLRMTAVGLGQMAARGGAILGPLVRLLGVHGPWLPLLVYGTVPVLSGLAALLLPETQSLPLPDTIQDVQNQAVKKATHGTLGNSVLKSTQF
Procedure: All the target compounds were evaluated for their URAT1 inhibitory activities in HEK293-URAT1 cells using ^14C-labeled uric acid as the substrate. […] The SAR exploration on series A compounds mainly focused on the hydrophobic component. […] For series B compounds, the ortho-substituted biphenyl carboxylic acid was initially kept, and various aromatic components were incorporated (B1–B25). […] Different substituents were introduced onto the 4-pyridyl (B15–B21).
In Vitro URAT1 Inhibitory Assay. A transient expression system of human URAT1 in HEK293T cells was constructed to measure ^14C-uric acid transport. […] The cell cryovials were removed from liquid nitrogen storage, and immediately placed on dry ice prior to thawing. […] The cell suspension was transferred into a 15 mL centrifuge tube, and 10 mL complete medium (DMEM +10% FBS +500 μg/mL G418 +1% P/S) was added. After centrifugation at 1000 rpm for 5 min, the supernatant was discarded, and cell precipitation was resuspended in 5 mL complete medium and transferred to a T75 culture flask. […] The uptake assay test could be carried out after cell culture adherent to the well in the 96-well plate. Then, the cells were washed with 200 µL/well of pre-warmed Cl^- free HBSS buffer, and all buffer was removed at the last washing. 50 µL/well of Cl^- free HBSS Buffer containing Uric acid [8-^14C] (2.5 μCi/mL) and samples were added to the cells, and incubated for 8 min. Then, the cells were washed three times with Cl^- free HBSS Buffer and all buffer was removed at the last washing. 50 µL/well of lysis buffer (100 mM NaOH) was added to the lysate cells and stirred at 900 rpm for 5 min. 150 µL/well MicroScint™-40 cocktail was added and agitated at 900 rpm for 5 min. Finally, the 96-plate was counted in a MicroBeta2 (PerkinElmer). The data were analyzed and IC50 values was calculated with GraphPad Prism 6 software.

Row | IC50 [1] [nM] | inhibition at 10 µM [1] [%] | melting point [°C] | Structure (SMILES)
1 | – | < 10 | 165 to 167 | O=C(O)c1ccccc1-c1ccc(C(=O)N2CCCc3ccccc32)cc1 [Compound A20]
2 | – | < 10 | 100 to 102 | O=C(O)c1ccccc1-c1cccc(C(=O)N2CCCc3ccccc32)c1 [Compound A21]
3 | – | 56 | 150 to 153 | O=C(O)c1ccccc1-c1ccccc1-c1nc(-c2ccc(F)cc2)no1 [Compound B1]
4 | – | 39 | 173 to 175 | O=C(O)c1ccccc1-c1ccccc1-c1nc(-c2ccc(C(F)(F)F)cc2)no1 [Compound B2]
5 | – | 55 | 154 to 156 | O=C(O)c1ccccc1-c1ccccc1-c1nc(-c2ccc(Cl)cc2)no1 [Compound B3]
6 | – | 61 | 148 to 150 | O=C(O)c1ccccc1-c1ccccc1-c1nc(-c2ccc(Br)cc2)no1 [Compound B4]
7 | – | 68 | 154 to 157 | COc1ccc(-c2noc(-c3ccccc3-c3ccccc3C(=O)O)n2)cc1 [Compound B5]
8 | – | 45 | 151 to 153 | Cc1ccc(-c2noc(-c3ccccc3-c3ccccc3C(=O)O)n2)cc1 [Compound B6]
9 | – | 44 | 119 to 121 | O=C(O)c1ccccc1-c1ccccc1-c1nc(-c2cccc(Br)c2)no1 [Compound B7]
10 | – | 56 | 171 to 175 | O=C(O)c1ccccc1-c1ccccc1-c1nc(-c2ccco2)no1 [Compound B8]
11 | – | 68 | 140 to 142 | O=C(O)c1ccccc1-c1ccccc1-c1nc(-c2cccs2)no1 [Compound B9]
12 | – | 69 | 146 to 148 | O=C(O)c1ccccc1-c1ccccc1-c1nc(-c2ccsc2)no1 [Compound B10]
13 | – | 30 | 167 to 169 | O=C(O)c1ccccc1-c1ccccc1-c1nc(-c2ccncn2)no1 [Compound B11]
14 | – | 27 | 190 to 193 | O=C(O)c1ccccc1-c1ccccc1-c1nc(-c2ccccn2)no1 [Compound B12]
15 | – | 64 | 210 to 212 | O=C(O)c1ccccc1-c1ccccc1-c1nc(-c2cccnc2)no1 [Compound B13]
16 | 1800 | 88 | 188 to 191 | O=C(O)c1ccccc1-c1ccccc1-c1nc(-c2ccncc2)no1 [Compound B14]
17 | 250 | 97 | 165 to 168 | O=C(O)c1ccccc1-c1ccccc1-c1nc(-c2ccnc(Br)c2)no1 [Compound B15]
18 | 270 | 97 | 145 to 147 | O=C(O)c1ccccc1-c1ccccc1-c1nc(-c2ccnc(Cl)c2)no1 [Compound B16]
19 | 980 | 90 | 98 to 100 | O=C(O)c1ccccc1-c1ccccc1-c1nc(-c2ccnc(F)c2)no1 [Compound B17]
20 | 280 | 97 | 228 to 230 | Cc1cc(-c2noc(-c3ccccc3-c3ccccc3C(=O)O)n2)ccn1 [Compound B18]
21 | 420 | 96 | 154 to 156 | COc1cc(-c2noc(-c3ccccc3-c3ccccc3C(=O)O)n2)ccn1 [Compound B19]
22 | 3100 | 76 | 214 to 216 | Cc1cc(-c2noc(-c3ccccc3-c3ccccc3C(=O)O)n2)cc(C)n1 [Compound B20]
23 | 170 | 98 | – | O=C(O)c1ccccc1-c1ccccc1-c1nc(-c2ccncc2Cl)no1 [Compound B21]
24 | 1100 | 89 | 258 to 259 | O=C(O)c1ccccc1-c1ccccc1-c1nc(-c2ccnc3ccccc23)no1 [Compound B22]
25 | 6100 | 74 | 236 to 238 | O=C(O)c1ccccc1-c1ccccc1-c1nc(-c2cnc3ccccc3c2)no1 [Compound B23]
26 | – | 67 | 264 to 266 | O=C(O)c1ccccc1-c1ccccc1-c1nc(-c2ccc3ncccc3c2)no1 [Compound B24]
27 | – | 42 | 169 to 171 | COc1ccc(-c2noc(-c3ccccc3-c3ccccc3C(=O)O)n2)c2ccccc12 [Compound B25]
28 | – | 35 | 240 to 242 | O=C(O)CCNC(=O)c1ccccc1-c1ccccc1-c1nc(-c2ccncc2Cl)no1 [Compound B26]

The remaining lines, values behind:

Row | Structure (SMILES) | IC50 [1] [nM] | inhibition at 10 µM [1] [%] | melting point [°C]
29 | O=C(O)c1ccccc1-c1ccccc1C(=O)N1CCCc2ccccc21 [Compound A1] | 930 | 89 | –
30 | O=C(O)c1ccccc1-c1ccccc1C(=O)N1CCOc2ccccc21 [Compound A2] | 3900 | 75 | 174 to 176
31 | O=C(O)c1ccccc1-c1ccccc1C(=O)N1CCSc2ccccc21 [Compound A3] | – | 78 | 193 to 195
32 | O=C(O)c1ccccc1-c1ccccc1C(=O)N1CCc2ccccc21 [Compound A4] | 4700 | 77 | 195 to 196
33 | O=C(O)c1ccccc1-c1ccccc1C(=O)N1CCCCc2ccccc21 [Compound A5] | – | 72 | 215 to 217
34 | O=C(O)c1ccccc1-c1ccccc1C(=O)N1CCCc2ccc(Br)cc21 [Compound A6] | 1100 | 84 | 231 to 233
35 | O=C(O)c1ccccc1-c1ccccc1C(=O)N1CCCc2cc(Br)ccc21 [Compound A7] | 1100 | 94 | 261 to 262
36 | O=C(O)c1ccccc1-c1ccccc1C(=O)N1CCCc2c(Br)cccc21 [Compound A8] | 1600 | 90 | 201 to 202
37 | O=C(O)c1ccccc1-c1ccccc1C(=O)N1CCCc2ccc(Cl)cc21 [Compound A9] | 2200 | 85 | 233 to 234
38 | COc1ccc2c(c1)CCCN2C(=O)c1ccccc1-c1ccccc1C(=O)O [Compound A10] | 1800 | 88 | 198 to 200
39 | Cc1ccc2c(c1)CCCN2C(=O)c1ccccc1-c1ccccc1C(=O)O [Compound A11] | 2100 | 91 | 220 to 222
40 | O=C(O)c1ccccc1-c1ccccc1C(=O)N1CCCc2ccc(-c3ccc(F)cc3)cc21 [Compound A12] | – | 29 | 245 to 246
41 | O=C(O)c1ccccc1-c1ccccc1C(=O)N1CCCc2ccc(-c3ccncc3)cc21 [Compound A13] | 1500 | 86 | 266 to 268
42 | COc1cccc(-c2ccc3c(c2)N(C(=O)c2ccccc2-c2ccccc2C(=O)O)CCC3)c1 [Compound A14] | – | 58 | 177 to 179
43 | O=C(O)c1ccccc1-c1ccccc1C(=O)N1CCc2ccccc2C1 [Compound A15] | – | 25 | 171 to 173
44 | CN(C(=O)c1ccccc1-c1ccccc1C(=O)O)c1ccccc1 [Compound A16] | – | 13 | 169 to 172
45 | O=C(O)c1ccccc1-c1ccccc1C(=O)NCc1ccncc1 [Compound A17] | – | < 10 | 118 to 120
46 | O=C(O)c1ccccc1-c1ccccc1C(=O)Nc1ccncc1 [Compound A18] | – | 11 | 190 to 191
47 | O=C(O)c1ccccc1-c1ccccc1C(=O)Nc1ccnc2ccccc12 [Compound A19] | – | 24 | 176 to 178
